From PMC11157103, “Exploration of morpholine-thiophene hybrid thiosemicarbazones for the treatment of ureolytic bacterial infections via targeting urease enzyme: Synthesis, biochemical screening and computational analysis” (Frontiers in Chemistry, 2024)
Read-outs that look alike come from different tables or passages of the source.

How the values were obtained:
jack bean urease = jack bean urease (Canavalia ensiformis, UniProt P07374); assay: biochemical; assay type: biochemical; conditions: for fold stronger inhibitory potential than thiourea: relative to thiourea IC50
Sequence of jack bean urease (P07374 whole entry, looked up): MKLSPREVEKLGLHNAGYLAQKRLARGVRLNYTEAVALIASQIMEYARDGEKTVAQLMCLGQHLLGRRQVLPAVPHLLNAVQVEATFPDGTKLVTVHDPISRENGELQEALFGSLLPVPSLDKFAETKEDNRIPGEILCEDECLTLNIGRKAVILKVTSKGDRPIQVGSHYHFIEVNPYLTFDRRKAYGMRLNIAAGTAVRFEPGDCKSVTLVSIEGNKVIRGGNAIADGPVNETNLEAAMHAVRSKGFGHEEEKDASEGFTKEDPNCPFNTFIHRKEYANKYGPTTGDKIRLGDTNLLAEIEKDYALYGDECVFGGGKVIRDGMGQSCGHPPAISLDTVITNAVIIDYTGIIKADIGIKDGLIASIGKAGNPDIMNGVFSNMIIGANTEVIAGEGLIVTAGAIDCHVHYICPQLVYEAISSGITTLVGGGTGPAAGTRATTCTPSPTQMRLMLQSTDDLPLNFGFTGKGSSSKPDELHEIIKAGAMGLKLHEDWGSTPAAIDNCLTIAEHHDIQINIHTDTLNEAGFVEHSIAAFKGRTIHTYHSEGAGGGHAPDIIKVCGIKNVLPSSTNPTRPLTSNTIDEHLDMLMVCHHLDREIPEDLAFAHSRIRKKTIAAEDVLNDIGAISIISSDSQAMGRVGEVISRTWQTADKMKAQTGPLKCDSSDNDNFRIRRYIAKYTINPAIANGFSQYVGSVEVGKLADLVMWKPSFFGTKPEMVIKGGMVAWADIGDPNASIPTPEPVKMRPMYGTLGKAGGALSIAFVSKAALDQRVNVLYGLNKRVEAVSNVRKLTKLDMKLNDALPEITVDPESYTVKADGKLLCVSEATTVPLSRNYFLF
Description: The indophenol method with a little modification was used to determine the urease inhibitory activity of synthetic compounds (5a-i) ([Weatherburn, 1967]; [Yaseen et al., 2016]). Thiourea was used as a standard inhibitor. The assay mixture was comprised of 40 μL of buffer (100 mmol/L urea, 0.01 mol/L K2HPO4, 1 mmol/L EDTA and 0.01 mol/L […], pH 8.2), 10 μL of jack bean urease (5 U/mL) and 10 μL of test compound (1 mM). The reaction mixture was incubated for 30 min with 10 μL urea (1 mM) at 37 °C in 96-well plate. The phenol reagent (40 μL, 1% w/v phenol, 0.005% w/v sodium nitroprusside) and alkali reagent (40 μL, 0.5% w/v NaOH, 0.1% active chloride NaOCl) were added to each well and after 10 min of incubation at 37 °C, the absorbance was measured at 630 nm using a microplate reader (Bio-Tek ELx 800™, Instruments, Inc. United States). The experiments to determine the inhibitory activity of compounds were performed in triplicates. The percentage inhibition was calculated by using the formula given below. Inhibition %=100 – Absorbance of the test compound/Absorbance of the control×100
Compounds showing >50% inhibition against urease were further evaluated for the determination of IC50 values at various concentrations (0.1, 0.3, 1, 3, 10, 30, 100, 300, 1,000 μM) against jack bean urease. The experiments were performed in triplicate. IC50 values were calculated by using the non-linear curve fitting program PRISM 5.0 (GraphPad, San Diego, California, United States) to analyze the results.

urease = urease (Canavalia ensiformis, UniProt P07374); assay: Kinetics analysis (Michaelis-Menten, Lineweaver-Burk plot); assay type: biochemical, jack bean; conditions: urea 25-150 mM, inhibitor 0, 1.9, 3.8, 5.7 μM
Sequence of urease (P07374 whole entry, looked up): as above
Description: These experiments helped in the assessment of K m and V max values to predict the mechanism of urease inhibition by plotting reciprocal of reaction rate 1/V (y-axis) against reciprocal of substrate concentrations 1/[S] (x-axis).
The rate of enzyme inhibition was accessed across numerous concentrations of substrate (25, 50, 100, 150 mM) and compound 5g (0, 1.9, 3.8, 5.7 μM) against urease. Afterwards, the data was plotted to obtain the Lineweaver-Burk plot by using GraphPad Prism version 10.2.1.

Row | Structure (SMILES) | IC50 (jack bean urease) [µM] | fold stronger inhibitory potential than thiourea (jack bean urease) [fold] | melting point [°C] | mechanism of urease inhibition (urease) | IC50 (jack bean urease; jack bean urease, indophenol method, triplicate, read-out: Urease inhibition IC50 ± SEM) [µM]
1 | S=C(NCCN1CCOCC1)NN=Cc1cccs1 [Compound 5a, N-(2-morpholinoethyl)-2-(thiophen-2-ylmethylene)hydrazinecarbothioamide] | 4.94 ± 2.7 | 4.5 |  |  | 
2 | CC(=NNC(=S)NCCN1CCOCC1)c1cccs1 [Compound 5b, N-(2-morpholinoethyl)-2-(1-(thiophen-2-yl)ethylidene)hydrazinecarbothioamide] | 4.96 ± 3 |  | 142 to 144 |  | 
3 | CC(=NNC(=S)NCCN1CCOCC1)c1cc(C)cs1 [Compound 5c, 2-(1-(4-Methylthiophen-2-yl)ethylidene)-N-(2-morpholinoethyl)hydrazinecarbothioamide] | 4 ± 2.4 |  | 112 to 114 |  | 
4 | CC(=NNC(=S)NCCN1CCOCC1)c1ccc(C)s1 [Compound 5d, 2-(1-(5-Methylthiophen-2-yl)ethylidene)-N-(2-morpholinoethyl)hydrazinecarbothioamide] | 4.6 ± 2.6 | 4.8 | 156 to 158 |  | 
5 | CC(=NNC(=S)NCCN1CCOCC1)c1sccc1Cl [Compound 5e, 2-(1-(3-Chlorothiophen-2-yl)ethylidene)-N-(2-morpholinoethyl)hydrazinecarbothioamide] | 4.81 ± 1.5 |  | 116 to 118 |  | 
6 | CC(=NNC(=S)NCCN1CCOCC1)c1sccc1Br [Compound 5f, 2-(1-(3-Bromothiophen-2-yl)ethylidene)-N-(2-morpholinoethyl)hydrazinecarbothioamide] | 5.77 ± 0.7 |  | 124 to 126 |  | 
7 | CC(=NNC(=S)NCCN1CCOCC1)c1ccc(Cl)s1 [Compound 5g, 2-(1-(5-Chlorothiophen-2-yl)ethylidene)-N-(2-morpholinoethyl)hydrazinecarbothioamide] | 3.8 ± 1.9 |  | 148 to 150 | uncompetitive inhibition | 
8 | CC(=NNC(=S)NCCN1CCOCC1)c1ccc(Br)s1 [Compound 5h, 2-(1-(5-Bromothiophen-2-yl)ethylidene)-N-(2-morpholinoethyl)hydrazinecarbothioamide] | 3.98 ± 2.2 |  | 148 to 150 |  | 
9 | CC(=NNC(=S)NCCN1CCOCC1)c1ccc([N+](=O)[O-])s1 [Compound 5i, N-(2-morpholinoethyl)-2-(1-(5-nitrothiophen-2-yl)ethylidene)hydrazinecarbothioamide] | 3.9 ± 2.7 |  | 192 to 194 |  | 
10 | NC(N)=S [Thiourea, reference compound] |  |  |  |  | 22.31 ± 0.03
